Where only a bound is given, the exact number is not on record here.

Usually IC50 stands for the concentration at which inhibition is half-maximal.

In the assay the target is CYP46A1 (Homo sapiens, UniProt Q9Y6A2). The assay is described as follows: CYP46A1 Enzyme Assay 2 (testosterone substrate, HPLC-MS). It counts as biochemical. As to conditions: read-out: IC50 (CYP46A1 inhibitory activity). In a few lines: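 CYP46A1 (5 μM final) with testosterone ([…] final) preincubated with compound 30 min at 37° C, reaction started with NADPH-generating system and run 15 min at 37° C. Quenched in methanol containing diclofenac internal standard; product read by HPLC-MS.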
Sequence of CYP46A1 (Q9Y6A2 whole entry): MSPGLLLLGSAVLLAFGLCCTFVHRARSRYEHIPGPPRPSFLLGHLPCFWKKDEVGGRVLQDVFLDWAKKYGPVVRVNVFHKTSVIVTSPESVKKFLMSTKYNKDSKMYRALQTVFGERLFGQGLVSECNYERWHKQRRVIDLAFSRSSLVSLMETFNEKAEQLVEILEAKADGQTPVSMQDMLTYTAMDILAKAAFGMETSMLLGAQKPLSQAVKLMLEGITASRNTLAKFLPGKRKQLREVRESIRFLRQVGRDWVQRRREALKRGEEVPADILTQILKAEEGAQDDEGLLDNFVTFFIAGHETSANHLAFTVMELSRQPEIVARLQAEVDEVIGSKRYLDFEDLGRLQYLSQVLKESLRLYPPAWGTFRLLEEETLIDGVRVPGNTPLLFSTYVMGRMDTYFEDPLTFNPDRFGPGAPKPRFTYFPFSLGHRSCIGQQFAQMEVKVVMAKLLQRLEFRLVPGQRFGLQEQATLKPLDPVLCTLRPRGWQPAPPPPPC
On to `N#CC1(Cc2c(F)cc(F)cc2F)CCN(C(=O)c2cccnc2-c2ccncn2)CC1` [Compound A263, 1-(2-(pyrimidin-4-yl)nicotinoyl)-4-(2,4,6-trifluorobenzyl)piperidine-4-carbonitrile], for which the IC50 was < 100 nM.
To `N#CC1(Cc2cccc(C(F)(F)F)c2)CCN(C(=O)c2cccnc2-c2ccncn2)CC1` [Compound A264, 1-(2-(pyrimidin-4-yl)nicotinoyl)-4-(3-(trifluoromethyl)benzyl)piperidine-4-carbonitrile] belongs < 100 nM; to `N#CC1(Cc2cccc(C(F)(F)F)c2F)CCN(C(=O)c2cccnc2-c2ccncn2)CC1` [Compound A265, 4-(2-fluoro-3-(trifluoromethyl)benzyl)-1-(2-(pyrimidin-4-yl)nicotinoyl)piperidine-4-carbonitrile], < 100 nM; to `N#CC1(Cc2cccc(C(F)(F)F)c2F)CCN(C(=O)c2cccnc2-c2ccncc2)CC1` [Compound A266, 1-([2,4′-bipyridine]-3-carbonyl)-4-(2-fluoro-3-(trifluoromethyl)benzyl)piperidine-4-carbonitrile], < 100 nM.
With `N#CC1(Cc2ccc(F)c(C(F)(F)F)c2)CCN(C(=O)c2cccnc2-c2ccncn2)CC1` [Compound A267, 4-(4-fluoro-3-(trifluoromethyl)benzyl)-1-(2-(pyrimidin-4-yl)nicotinoyl)piperidine-4-carbonitrile], the IC50 was < 100 nM.
Take `N#CC1(Cc2c(F)cc(F)cc2F)CCN(C(=O)c2cccnc2-c2ccncc2)CC1` [Compound A272, 1-([2,4′-bipyridine]-3-carbonyl)-4-(2,4,6-trifluorobenzyl)piperidine-4-carbonitrile]: the IC50 is < 100 nM.
In the case of `N#CC1(Cc2cc(C(F)(F)F)ccc2F)CCN(C(=O)c2cccnc2-c2ccncn2)CC1` [Compound A273, 4-(2-fluoro-5-(trifluoromethyl)benzyl)-1-(2-(pyrimidin-4-yl)nicotinoyl)piperidine-4-carbonitrile], the IC50 is < 100 nM.
`N#CC1(Cc2c(F)cccc2F)CCN(C(=O)c2cccnc2-c2ccncc2)CC1` [Compound A274, 1-([2,4′-bipyridine]-3-carbonyl)-4-(2,6-difluorobenzyl)piperidine-4-carbonitrile]: the IC50 is < 100 nM.
Regarding `N#CC1(Cc2ccccc2C(F)(F)F)CCN(C(=O)c2cccnc2-c2ccncc2)CC1` [Compound A275, 1-([2,4′-bipyridine]-3-carbonyl)-4-(2-(trifluoromethyl)benzyl)piperidine-4-carbonitrile], the IC50 was < 100 nM.
Under `N#CC1(Cc2ccc(F)cc2C(F)(F)F)CCN(C(=O)c2cccnc2-c2ccncn2)CC1` [Compound A276, 4-(4-fluoro-2-(trifluoromethyl)benzyl)-1-(2-(pyrimidin-4-yl)nicotinoyl)piperidine-4-carbonitrile] stands 100 to 1000 nM; under `N#CC1(Cc2ccc(F)cc2C(F)(F)F)CCN(C(=O)c2cccnc2-c2ccncc2)CC1` [Compound A277, 1-([2,4′-bipyridine]-3-carbonyl)-4-(4-fluoro-2-(trifluoromethyl)benzyl)piperidine-4-carbonitrile], < 100 nM; under `N#CC1(Cc2ccc(F)c(C(F)(F)F)c2)CCN(C(=O)c2cccnc2-c2ccncc2)CC1` [Compound A278, 1-([2,4′-bipyridine]-3-carbonyl)-4-(4-fluoro-3-(trifluoromethyl)benzyl)piperidine-4-carbonitrile], < 100 nM.
In the case of `N#CC1(Cc2cccc(C(F)(F)F)c2)CCN(C(=O)c2cccnc2-c2ccncc2)CC1` [Compound A279, 1-([2,4′-bipyridine]-3-carbonyl)-4-(3-(trifluoromethyl)benzyl)piperidine-4-carbonitrile], the IC50 is < 100 nM.
As for `N#CC1(Cc2c(F)cc(C(F)(F)F)cc2F)CCN(C(=O)c2cccnc2-c2ccncc2)CC1` [Compound A280, 1-([2,4′-bipyridine]-3-carbonyl)-4-(2,6-difluoro-4-(trifluoromethyl)benzyl)piperidine-4-carbonitrile], the IC50 is < 100 nM.
In the case of `N#CC1(Cc2c(F)cc(C(F)(F)F)cc2F)CCN(C(=O)c2cccnc2-c2ccncn2)CC1` [Compound A281, 4-(2,6-difluoro-4-(trifluoromethyl)benzyl)-1-(2-(pyrimidin-4-yl)nicotinoyl)piperidine-4-carbonitrile], the IC50 was < 100 nM.
For `N#CC1(Cc2cc(F)ccc2F)CCN(C(=O)c2cccnc2-c2ccncc2)CC1` [Compound A282, 1-([2,4′-bipyridine]-3-carbonyl)-4-(2,5-difluorobenzyl)piperidine-4-carbonitrile], the IC50 is < 100 nM.
With `N#CC1(Cc2cc(C(F)(F)F)ccc2F)CCN(C(=O)c2cccnc2-c2ccncc2)CC1` [Compound A283, 1-([2,4′-bipyridine]-3-carbonyl)-4-(2-fluoro-5-(trifluoromethyl)benzyl)piperidine-4-carbonitrile], the IC50 was < 100 nM.
In the case of `N#CC1(Cc2ccc(F)cc2F)CCN(C(=O)c2cccnc2-c2ccncc2)CC1` [Compound A284, 1-([2,4′-bipyridine]-3-carbonyl)-4-(2,4-difluorobenzyl)piperidine-4-carbonitrile], the IC50 was < 100 nM.
Turning to `N#CC1(Cc2ccc(C(F)(F)F)cc2)CCN(C(=O)c2cccnc2-c2ccncc2)CC1` [Compound A285, 1-([2,4′-bipyridine]-3-carbonyl)-4-(4-(trifluoromethyl)benzyl)piperidine-4-carbonitrile], the IC50 is < 100 nM.
Turning to `C[C@@H](c1ccc(C(F)(F)F)cc1F)C1(C#N)CCN(C(=O)c2cccnc2-c2ccncn2)CC1` [Compound A286, (R)-4-(1-(2-fluoro-4-(trifluoromethyl)phenyl)ethyl)-1-(2-(pyrimidin-4-yl)nicotinoyl)piperidine-4-carbonitrile], the IC50 was < 100 nM.
Under `C[C@H](c1ccc(C(F)(F)F)cc1F)C1(C#N)CCN(C(=O)c2cccnc2-c2ccncn2)CC1` [Compound A287, (S)-4-(1-(2-fluoro-4-(trifluoromethyl)phenyl)ethyl)-1-(2-(pyrimidin-4-yl)nicotinoyl)piperidine-4-carbonitrile] stands < 100 nM.

These data come from US20220332699A1 (SAGE THERAPEUTICS, INC., priority 2019, published 2022).
